Tests used:
[1] = tested on: CoA-IT; test: CoA-IT activity assay in U937 cell microsomes; format: biochemical
Excerpt: The following is a method to measure CoA-IT activity and the effects of compounds on CoA-IT activity. The assay is based upon mixing cellular material containing CoA-IT activity with a stable lyso phospholipid such as […] and measuring the production of phospholipid product such as […] occurring in the absence of added CoA or CoA-fatty acids.
Any inflammatory cell that contains high levels of CoA-IT activity can be used, such as neutrophils, macrophages or cell lines such as U937 cells. U937 cells were obtained from American Type Culture Collection and grown in RPMI-1640 media (Gibco, Grand Island, N.Y.) supplemented with 10% fetal bovine serum (Hyclone, Logan, UT) at 37° C., 5% CO2. Cells were grown without differentiation (basal state) by any agent, such as dimethyl sulfoxide. As used herein, “inflammatory cells” include, but are not limited to neutrophils, macrophages, monocytes, lymphocytes, eosinophils, basophils, and mast cells.
Microsomes were prepared using standard techniques. In this case, cells were washed with a buffer of 250 mM sucrose, 10 mM Tris, 1 mM EGTA, 1 mM MgCl2, pH 7.4 and ruptured by N2 cavitation (750 psi, 10 minutes). The ruptured cells were centrifuged 1000×g, 5 minutes. The resulting supernatant was centrifuged at 20,000×g,˜20 minutes. Microsomes were prepared from this supernatant by centrifugation at 100,000×g, 60 minutes. The resulting pellet was washed once with assay buffer (150 mM NaCl, 10 mM Na2KPO4, 1 mM EGTA, pH 7.4), recentrifuged and the pellet resuspended in assay buffer (4-20 mg protein/ml) and was stored at −80° C. until assayed.
CoA-II activity was measured in 1.5 ml centrifuge tubes in a total volume of 100 ul. Microsomes were diluted in assay buffer to the desired protein concentration (6-20 ug/tube). The reaction was initiated by addition of [3H]1-alkyl-2-lyso-sn-glycero-3-phosphocholine (GPC) (˜0.1 uCi/tube) and 1 μM final cold 1-alkyl-2-lyso-GPC in assay buffer with 0.25 mg/ml fatty acid-poor bovine serum albumin (BSA) (Calbiochem, La Jolla, Calif.). [3H]1-alkyl-2-lyso-GPC, approximately 50 Ci/mmol, was from NEN-Dupont (Boston, Mass.) and cold 1-alkyl-2-lyso-GPC was from Biomol (Plymouth Meeting, Pa.). Microsomes were pretreated with desired agents for the desired time (10 minutes) before the addition of [3H]1-alkyl-2-lyso-GPC. The reaction was run for the desired tlime (10 minutes) at 37° C. The reaction was stopped and the lipids extracted by addition of 100 ul of chloroform:methanol (1:2, v/v) followed by 100 ul of chloroform and 100 ul of 1 M KCI. The samples were vortexed and centrifuged at high speed in a microfuge for 2-3 minutes. An aliquot of the chloroform-extracted materials were separated, usually by TLC in chloroform/methanol/acetic acid/water (50:25:8:4, v/v), visualized by radioscanning (Bioscan) and the product, [3H]1-alkyl-2-acyl-GPC, was scraped and quantified by liquid scintillation spectroscopy. […] Other methods can be used to separate substrate from product, including but not limited to column chromatography, affinity chromatography and post reaction derivitization.
Protein concentration were assessed using the protein assay reagents from Bio Rad (Richmond, Calif.).

[2] = tested on: CoA-IT; conditions: literature, background; cited from earlier work
[3] = tested on: neoplastic cell lines; conditions: literature, background; several neoplastic cell lines; cited from earlier work

SMILES: O=S1(=O)CCn2c1nc(-c1ccc(F)cc1)c2-c1ccncc1 [6-(4′-Fluorophenyl)-5-(4-pyridyl)2,3-dihydroimidzo-[2,1-b]thiazole-dioxide]
- effect on CoA-IT activity ([1]; at concentrations up to 100 μM): no effect

SMILES: Fc1ccc(-c2nc3n(c2-c2ccncc2)CCS3)cc1 [6-(4′-Fluorophenyl)-5-(4-pyridyl)-2,3-dihydroimidzo-[2,1-b]thiazole]
- effect on CoA-IT activity ([1]; at concentrations up to 100 μM): no effect

SMILES: Cc1cc(C(C)(C)C)c(O)c(C(C)(C)C)c1 [BHT]
- effect on CoA-IT activity ([1]; at concentrations up to 100 μM): no effect

SMILES: CN(C)CCC=C1c2ccccc2COc2ccccc21 [Doxepine]
- effect on CoA-IT activity ([1]; at concentrations up to 100 μM): did not inhibit

SMILES: CCCCCCCCCCCCCCCCCCOCC(COP(=O)([O-])OCC[N+](C)(C)C)OC (stereo not drawn) [ET-18-0-CH3, 1-0-octadecyl-2-0-methyl-phosphocholine]
- inhibition of CoA-IT [2]: potent inhibitor
- antiproliferative / apoptosis effect [3]: attenuate cell proliferation and induce apoptosis

SMILES: COC(=O)CCCO[C@@H]1NC(=O)[C@H]1NC(c1ccccc1)(c1ccccc1)c1ccccc1 [Example 17, (3S,4S)-4-[3-(Methoxycarbonyl)propoxy]-3-(triphenylmethylamino)azetidin-2-one]
- activity in microsomal CoA-IT assay under other conditions ([1]; increased uM or longer pretreatment time): active at either increased uM or longer pretreatment time

SMILES: O=C(Nc1ccc(Cl)c(C(F)(F)F)c1)Nc1cc(C(F)(F)F)ccc1Oc1cc(Cl)c(Cl)cc1S(=O)(=O)O [SK&F 45905, 2-[2-[3-(4-Chloro-3-trifluoromethylphneyl)ureido]-4-tifluromethylphenoxy]-4,5-dichlorobenzene sulfonic acid]
- inhibition of CoA-IT [2]: capable of inhibiting CoA-IT
- antiproliferative / apoptosis effect [3]: possess antiproliferative properties

SMILES: CCOP(=O)(CCCCCCCn1c(-c2ccccc2)c(-c2ccccc2)n(-c2ccccc2)c1=O)OCC [SK&F 98625, Diethyl 7-(3,4,5-triphenyl-2-oxo-2,3-dihydroimidazol-1yl)heptane phosphonate]
- inhibition of CoA-IT [2]: capable of inhibiting CoA-IT
- antiproliferative / apoptosis effect [3]: possess antiproliferative properties

SMILES: COc1cccc2c1cc([N+](=O)[O-])c1c(C(=O)O)cc3c(c12)OCO3 [aristolochic acid]
- effect on CoA-IT activity ([1]; at concentrations up to 500 μM): no effect

SMILES: COc1ccc2c(c1)c(CC(=O)O)c(C)n2C(=O)c1ccc(Cl)cc1 [indomethicin]
- effect on CoA-IT activity ([1]; at concentrations up to 100 μM): no effect

SMILES: COc1ccc2cc([C@H](C)C(=O)O)ccc2c1 [naproxen]
- effect on CoA-IT activity ([1]; at concentrations up to 100 μM): no effect

SMILES: CCN(CC)CCCC(C)Nc1c2ccc(Cl)cc2nc2ccc(OC)cc12 (stereo not drawn) [quinacrine]
- effect on CoA-IT activity ([1]; at concentrations up to 500 μM): no effect

Source: patent US6451785B1, “Beta lactams as antiproliferative agents” (SmithKline Beecham Corporation, priority 1997, dated 2002)
